In PubChem BioAssay AID1208 (EPA DSSTox, 2008):
Calls of active or inactive are those of the source.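 How the source made its calls: active means at least one rat sex group has a carcinogenic potency value and tumor site recorded; inconclusive means only rat studies were judged inadequate by the national testing program; inactive means no potency or tumor site, with negative rat experiments.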

System: rat chronic carcinogenicity bioassay, TD50
Experiment: DSSTox (CPDBAS) Carcinogenic Potency Database Summary Rat Bioassay Results
Details: for outcome: TD50_Rat_Note: no positive results; for Potency: stronger effect = lower value
Outline: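 The activity score maps log10(1/TD50_Rat_mmol) linearly onto 1–100; actives without a computed TD50, such as mixtures, receive 50. Source data are chronic rat carcinogenicity tests, using the most positive experiment for each sex.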

[1] = TargetSites_Rat_Female: no positive results
[2] = TargetSites_Rat_BothSexes: no positive results
[3] = TD50_Rat_Note: TD50 is harmonic mean of more than one positive test, TargetSites_Rat_Female: mammary gland
[4] = TD50_Rat_Note: TD50 is harmonic mean of more than one positive test, TargetSites_Rat_Female: hematopoietic system

CCN(CC)C(=O)c1cccc(C)c1 was tested, and the outcome [1] was “inactive; no positive results”.

Work on Nc1ccc(Oc2ccc(N)cc2)cc1 yielded a Potency (TD50_Rat_Note: TD50 is harmonic mean of more than one positive test, TargetSites_Rat_Female: liver, thyroid gland) of 9.51 mg/kg/day.

For O=[N+]([O-])O, the outcome [1] was “inactive; no positive results”.

COc1cc2c(cc1N)oc1ccccc12 showed a Potency (TD50_Rat_Note: TD50 is harmonic mean of more than one positive test, harmonic mean of TD50 includes a value for upper 99% confidence li, TargetSites_Rat_Female: ear Zymbals gland, mammary gland, urinary bladder) of 29 mg/kg/day.

For CC(C)(OCc1ccc(-c2ccc(Cl)cc2)cc1)C(=O)O, the outcome [1] was “inactive; no positive results”.

For [O]=[Bi], the outcome [2] was “inactive”.

Work on CCCCCCCCCCN(C)N=O yielded a Potency of 1.26 mg/kg/day.

CC1=C(C(=O)OC(C)C)C(c2cccc([N+](=O)[O-])c2)C(C(=O)OC2CN(C(c3ccccc3)c3ccccc3)C2)=C(N)N1 (stereo not given) was tested, and the outcome [1] was “inactive; no positive results”.

Work on C[C@]12C=CC(=O)C=C1CC[C@@H]1[C@@H]2[C@@H](O)C[C@@]2(C)[C@H]1CC[C@]2(O)C(=O)COC(=O)CCCc1ccc(N(CCCl)CCCl)cc1 yielded a Potency (TargetSites_Rat_Female: ear Zymbals gland) of 19.2 mg/kg/day.

C=C(C)CCl was tested, and the Potency (TD50_Rat_Note: TD50 is harmonic mean of more than one positive test, TargetSites_Rat_Female: stomach) was 113 mg/kg/day.

O=[N+]([O-])c1ccc2c3c(cccc13)CC2 gave a Potency (TD50_Rat_Note: TD50 is harmonic mean of more than one positive test, TargetSites_Rat_Female: clitoral gland, ear Zymbals gland, lung, mammary gland) of 8.67 mg/kg/day.

In the case of CC(C)C[C@H]1C(=O)N2CCC[C@H]2[C@]2(O)O[C@](NC(=O)[C@@H]3C=C4c5cccc6[nH]c(Br)c(c56)C[C@H]4N(C)C3)(C(C)C)C(=O)N12, the Potency (TargetSites_Rat_Female: uterus) is reported as 33.7 mg/kg/day.

For Cc1ccc(Cl)cc1N, the outcome [1] was “inactive; no positive results”.

With S=C([S-])NCCNC(=S)[S-].[Zn+2] the outcome [1] was “inactive; no positive results” and the Potency (TargetSites_Rat_BothSexes: all tumor bearing animals) was 255 mg/kg/day.

For COC(=O)[C@H]1[C@H]2C[C@@H]3c4[nH]c5ccccc5c4CCN3C[C@H]2C[C@@H](OC(=O)c2cc(OC)c(OC)c(OC)c2)[C@@H]1OC, the outcome [2] was “inactive”.

For NC1CCCCC1, the outcome [1] was “inactive; no positive results”.

Compound CN(C)N=Nc1ccccc1 has a Potency (TargetSites_Rat_BothSexes: nervous system) of 2.31 mg/kg/day.

Compound O=NN1CCCC1c1ccc[n+]([O-])c1 (stereo not given) has a Potency (TD50_Rat_Note: TD50 is harmonic mean of more than one positive test, TargetSites_Rat_Female: esophagus, nasal cavity) of 0.876 mg/kg/day.

CCCCCC(/C=C/C=C\CCCCCCCC(=O)OC)OO (stereo not given) was tested, and the outcome was “inactive; no positive results”.

For O.O=S(=O)([O-])[O-].[Mn+2], the outcome [1] was “inactive; no positive results”.

With Oc1ccccc1-c1ccccc1 the Potency (TD50_Rat_Note: TD50 is harmonic mean of more than one positive test, greater than ten-fold variation among TD50 values for positive res, TargetSites_Rat_Female: urinary bladder) was 672 mg/kg/day and the Potency was 232 mg/kg/day.

O=C(O)c1cc(=O)[nH]c(=O)[nH]1 was tested, and the outcome was “inactive; no positive results”.

With O=NN(CCO)C(=O)NCCCl the Potency (TD50_Rat_Note: TD50 is harmonic mean of more than one positive test, TargetSites_Rat_Female: kidney, liver) was 0.356 mg/kg/day.

In the case of C=CC(=O)c1ccc2c(c1)OCO2, the outcome is reported as “inactive; no positive results”.

Nc1ccc(Cl)cc1 was tested, and the outcome [1] was “inactive; no positive results” and the Potency [1] was 7.62 mg/kg/day.

With CCCCC1C(=O)N(c2ccccc2)N(c2ccccc2)C1=O the Potency (TargetSites_Rat_Female: kidney) was 1160 mg/kg/day.

In the case of C=CCOCC1CO1 (stereo not given), the outcome [1] is reported as “inactive; no positive results”.

Work on OCN(CO)c1nc(N(CO)CO)nc(N(CO)CO)n1 yielded a Potency (TargetSites_Rat_Female: kidney, mammary gland) of 10.2 mg/kg/day.

In the case of O=C(O)c1ccccc1, the outcome is reported as “inactive; no positive results” and the outcome [1] is reported as “inactive; no positive results”.

Work on NNc1nc(-c2ccc([N+](=O)[O-])cc2)cs1 yielded a Potency [3] of 3.21 mg/kg/day.

Compound Clc1ccc(-c2ccc(Cl)c(Cl)c2Cl)c(Cl)c1Cl has a Potency (TD50_Rat_Note: TD50 is harmonic mean of more than one positive test, TD50_Rat_mmol was not calculated for this mixture, but Activiity S, TargetSites_Rat_Female: liver) of 2.81 mg/kg/day.

In the case of ClC(Cl)=C(Cl)Cl, the Potency [4] is reported as 145 mg/kg/day.

FC(Cl)C(F)(F)F (stereo not given) was tested, and the outcome [1] was “inactive”.

For CC(O)COC(C)(C)C (stereo not given), the outcome [1] was “inactive; no positive results”.

With ClCC(Cl)Cl the outcome [1] was “inactive; no positive results”.

For CCCN(CCC)N=O, the Potency (TargetSites_Rat_Female: esophagus, liver, nasal cavity) was 0.186 mg/kg/day.

With O=S1(=O)CC=CC1 the outcome [1] was “inactive; no positive results”.

CO[C@@]12[C@H](COC(N)=O)C3=C(C(=O)C(C)=C(N)C3=O)N1C[C@@H]1N[C@@H]12 was tested, and the Potency (TD50_Rat_Note: positive test results only by intraperitoneal or intravenous injection, TD50 is harmonic mean of more than one positive, TargetSites_Rat_Female: peritoneal cavity) was 0.00102 mg/kg/day.

In the case of CC(=O)OCc1ccccc1, the outcome [1] is reported as “inactive; no positive results”.

Work on Nc1ccc(N)c2c1C(=O)c1c(N)ccc(N)c1C2=O yielded a Potency (TD50_Rat_Note: TD50 is harmonic mean of more than one positive test, TargetSites_Rat_Female: urinary bladder) of 156 mg/kg/day.

For Cc1cc(Cc2cc(C)cc(C(C)(C)C)c2O)c(O)c(C(C)(C)C)c1, the outcome [1] was “inactive; no positive results”.

Nc1ccc(N(CCO)CCO)cc1 was tested, and the outcome [1] was “inactive; no positive results”.

For CCOP(=S)(OCC)Oc1nc(Cl)c(Cl)cc1Cl, the outcome [1] was “inactive; no positive results”.

OCCN(CCO)c1nc(-c2cccs2)nc2ccccc12 was tested, and the outcome [1] was “inactive”.

In the case of Cc1ccc(NC(N)=O)cc1, the outcome [1] is reported as “inactive; no positive results”.

In the case of CC(C)CON=O, the Potency (TD50_Rat_Note: TD50 is harmonic mean of more than one positive test, TargetSites_Rat_Female: lung) is reported as 54.1 mg/kg/day.

In the case of CC(F)(Cl)Cl, the Potency [1] is reported as 5260 mg/kg/day.

CCc1nc(N)nc(N)c1-c1ccc(Cl)cc1 was tested, and the outcome [1] was “inactive; no positive results”.

Clc1cc2c(c(Cl)c1Cl)Oc1c(cc(Cl)c(Cl)c1Cl)O2 was tested, and the Potency (TargetSites_Rat_Female: liver) was 0.000596 mg/kg/day.

Cc1ccc(O)c(C(C)(C)C)c1 was tested, and the outcome was “inactive; no positive results”.

O=C1c2cccc(O)c2C(=O)c2c(O)cccc21 was tested, and the Potency was 245 mg/kg/day.

For CNC(=O)O/N=C/C(C)(C)SC, the outcome [1] was “inactive; no positive results”.

For Clc1ccc(Cl)cc1, the Potency [1] was 644 mg/kg/day.

For COc1cc2c(c3c1c(=O)c1ccccc1n3C)C=CC(C)(C)O2, the Potency (TD50_Rat_Note: positive test results only by intraperitoneal or intravenous injection, TD50 is harmonic mean of more than one positive, TargetSites_Rat_Female: mammary gland, peritoneal cavity) was 0.505 mg/kg/day.

NC(=S)Nc1ccccc1 was tested, and the outcome [1] was “inactive; no positive results”.

With O=C(O)CCC(=O)O the outcome [1] was “inactive; no positive results”.

For C1CCOC1, the Potency [1] was 407 mg/kg/day.

With O=C1NS(=O)(=O)c2ccccc21 the Potency (TD50_Rat_Note: TD50 is harmonic mean of more than one positive test, greater than ten-fold variation among TD50 values for positive res, TargetSites_Rat_Female: no positive results) was 2140 mg/kg/day and the outcome was “inactive; no positive results”.

With CCCCCCCCCC[N+](C)(C)[O-] the outcome [1] was “inactive; no positive results”.

With O=NN1CN2CN(C1)CN(N=O)C2 the outcome was “inactive; no positive results”.

CCCC[N+](=O)[O-] was tested, and the outcome was “inactive; no positive results”.

IC(I)I was tested, and the outcome [1] was “inactive; no positive results”.

Compound CC(=O)O[C@H]1CC[C@@]2(C)C(=CC[C@@H]3[C@@H]2CC[C@]2(C)C(=O)CC[C@@H]32)C1 has a Potency (TD50_Rat_Note: TD50 is harmonic mean of more than one positive test, TargetSites_Rat_Female: liver) of 49.6 mg/kg/day.

With CCCCCN(N=O)C(=N)N[N+](=O)[O-] the outcome was “inactive; no positive results”.

Compound Oc1ccc(O)cc1 has a Potency [4] of 82.8 mg/kg/day.

For CN1CCC[C@H]1c1cccnc1, the outcome [1] was “inactive; no positive results”.

For Cc1c(N)cccc1N, the outcome [1] was “inactive; no positive results”.

In the case of NS(=O)(=O)c1cc(C(=O)O)c(NCc2ccco2)cc1Cl, the outcome [1] is reported as “inactive; no positive results”.

In the case of COc1cc(/C=C/C(=O)O[C@H]2CC[C@]34C[C@]35CC[C@]3(C)[C@@H]([C@H](C)CCC=C(C)C)CC[C@@]3(C)[C@@H]5CC[C@H]4C2(C)C)ccc1O, the outcome [1] is reported as “inactive; no positive results”.

For O=NN1CC=CCC1, the Potency (TD50_Rat_Note: TD50 is harmonic mean of more than one positive test, harmonic mean of TD50 includes a value for upper 99% confidence li, TargetSites_Rat_Female: esophagus, liver, stomach, vascular system) was 0.0601 mg/kg/day.

For CCNC(=O)N(CCO)N=O, the Potency [3] was 0.562 mg/kg/day.

With CCOC(=O)CC(SP(=S)(OC)OC)C(=O)OCC (stereo not given) the outcome [1] was “inactive; no positive results”.

With C=C1CC[C@H](O)C/C1=C/C=C1\CCC[C@]2(C)[C@@H]([C@H](C)CC[C@@H](O)C(C)(C)O)CC[C@@H]12 the outcome was “inactive; no positive results”.

With CC(O)CNCC(C)O (stereo not given) the outcome was “inactive; no positive results”.

With CC(C)Oc1ccccc1OC(=O)N(C)N=O the Potency was 0.364 mg/kg/day.

With S=c1[nH]c2ccccc2s1 the Potency (TD50_Rat_Note: TD50 is harmonic mean of more than one positive test, TargetSites_Rat_Female: adrenal gland, pituitary gland) was 344 mg/kg/day.

With Cn1c(N)nc2c3cccnc3ccc21 the Potency (TD50_Rat_Note: TD50 is harmonic mean of more than one positive test, greater than ten-fold variation among TD50 values for positive res, TargetSites_Rat_Female: clitoral gland, ear Zymbals gland, large intestine, liver, mammary gland, oral cavity, preputial gland, skin, small inte) was 0.812 mg/kg/day and the Potency (TargetSites_Rat_Female: ear Zymbals gland, liver, mammary gland, pancreas, urinary bladder, vascular system) was 3.29 mg/kg/day.

In the case of COc1ccc2c(c1)c(CC(=O)O)c(C)n2C(=O)c1ccc(Cl)cc1, the Potency (TargetSites_Rat_Female: mammary gland) is reported as 1.15 mg/kg/day.

For S=C=NCc1ccccc1, the outcome was “inactive; no positive results”.

For O=C(O)CCCc1ccc(N(CCCl)CCCl)cc1, the Potency (TD50_Rat_Note: TD50 is harmonic mean of more than one positive test, TargetSites_Rat_Female: ear Zymbals gland, mammary gland, nervous system) was 0.896 mg/kg/day.

Work on Nc1nc(=S)c2ncn([C@H]3C[C@H](O)[C@@H](CO)O3)c2[nH]1 yielded a Potency (TD50_Rat_Note: positive test results only by intraperitoneal or intravenous injection, TargetSites_Rat_Female: ear Zymbals gland) of 2.1 mg/kg/day.

With O=[N+]([O-])c1ccc2ncccc2c1 the outcome [1] was “inactive; no positive results”.

CCOc1ccc(NC(C)=O)cc1N was tested, and the outcome [1] was “inactive; no positive results”.

With c1ccoc1 the Potency (TD50_Rat_Note: TD50 is harmonic mean of more than one positive test, TargetSites_Rat_Female: hematopoietic system, liver) was 0.396 mg/kg/day.
